We go through 1 compound from patent publication US20140051729A1, “COMPOSITIONS AND METHODS FOR TREATING DEGENERATIVE MUSCLE CONDITIONS” (University of Washington, priority 2011, published 2014).

Each structure is given as a SMILES string.

Test [1] deals with T1, SPL (Mus musculus, UniProt Q8R0X7).
T1 construct: host or cells: mice (in vivo)
T1 sequence (Q8R0X7 1-568): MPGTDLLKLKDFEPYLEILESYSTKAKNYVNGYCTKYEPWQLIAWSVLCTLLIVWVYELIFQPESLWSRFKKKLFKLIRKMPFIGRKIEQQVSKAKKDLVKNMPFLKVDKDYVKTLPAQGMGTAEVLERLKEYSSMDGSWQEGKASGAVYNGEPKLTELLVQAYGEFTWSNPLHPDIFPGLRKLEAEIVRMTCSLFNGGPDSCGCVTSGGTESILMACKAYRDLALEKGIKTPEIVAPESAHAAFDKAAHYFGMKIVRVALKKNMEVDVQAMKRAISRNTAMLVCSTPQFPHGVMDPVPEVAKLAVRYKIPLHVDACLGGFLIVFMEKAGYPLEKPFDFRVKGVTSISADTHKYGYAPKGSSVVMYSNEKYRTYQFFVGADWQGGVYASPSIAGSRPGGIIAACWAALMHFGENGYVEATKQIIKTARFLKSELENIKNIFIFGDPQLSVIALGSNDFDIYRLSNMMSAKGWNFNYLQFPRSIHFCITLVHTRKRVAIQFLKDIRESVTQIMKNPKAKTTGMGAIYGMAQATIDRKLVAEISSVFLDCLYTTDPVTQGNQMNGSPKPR
As to conditions: Schwab et al., Science 2005; cited from earlier work.

Test [2] concerns dystrophic flies (w; +/+; Dys^det1/Dys^det1). Description: Myofibril analysis of muscle wasting in dystrophic flies fed S1P promoting agents. The format is in vivo, Drosophila. As to conditions: 217 μM in feed, three feeding cycles, 10-day old flies, three days after last feeding. Here is the method:
The effect of THI, a derivative of THI ((E)-1-(4-((1R,2S,3R)-1,2,3,4-tetrahydroxybutyl)-1H-imidazol-2-yl)-ethanone oxime) (“THI-oxime”), and a sphingosine analog (FTY720) on muscle wasting in dystrophic Drosopila flies was observed. Before feeding, 4 day old dystrophic flies (genotype: w; +/+; Dys^det1/Dys^det1) were placed in empty vials and starved for 6 hours. The flies were then provided access to one of a solution of 0.05 mg/mL (217 μM) 2-Acetyl-4(5)-tetrahydroxybutyl Imidazole (THI), or 217 μM FTY720, or 217 μM THI-oxime, in 5% light corn syrup in water for 16-18 hrs. After feeding, the flies were placed in new yeasted vials for 6-7 hrs. Flies were then transferred to empty vials with access to a 217 μM solution of THI, FTY720 or THI-oxime in a 5% light corn syrup in water for 16-18 hrs. This feeding cycle was repeated for a third time. After feeding for three cycles, the flies were placed in new yeasted vials. The 7-day old flies that had been administered the THI-oxime were analyzed immediately after the last feeding. The flies that has been administered THI and FTY720 were analyzed as 10-day old flies, three days after the last feeding with THI and FTY720.
Myofibril immunochemistry analysis was performed as disclosed herein. For each treatment group, 5 flies were analyzed, and 3 muscles per fly and 2 myofibrils per muscle were analyzed. Two tailed Student's t test was used to evaluate significance.
Flies were dipped in 95% EtOH and then dissected in 1×PBS (pH 7.4). Heads and abdomens were removed, and the thoraxes opened. Samples were stained using a modified ovary staining protocol 3. Samples were then fixed in 5% paraformaldehyde (Electron Microscopy Sciences) for 1 hour, rinsed in PBT (PBS/0.2% Triton X-100 v/v) 4 times, and then blocked for 1 hour in PBTB (PBT, 0.4% BSA w/v, 5% Normal Goat Serum v/v) at room temperature. […] For each genotype, 4-5 flies were analyzed, and 6-7 muscles per fly were analyzed.

For `CC(=O)c1ncc([C@@H](O)[C@H](O)[C@H](O)CO)[nH]1` [THI, 1-[5-[(1R,2S,3R)-1,2,3,4-tetrahydroxybutyl]-1H-imidazol-2-yl]-ethanone], the “SPL activity when administered to mice” value in test [1] is “inhibits SPL activity”. Moreover, the wild-type myofibrils result in test [2] is on record as “approximately 67%”.
